Assay results taken from publication PMC5731860, “Novel allylated monocarbonyl analogs of curcumin induce mitotic arrest and apoptosis by reactive oxygen species-mediated endoplasmic reticulum stress and inhibition of STAT3” (Oncotarget, 2017).

Key:
BGC-823 = experiment: MTT assay, growth inhibition / cell viability; type: cell-based; details: Homo sapiens; for inhibition at 20 µM: BGC-823, 20 μM, 24 h
Protocol: (§1) First, we investigated whether allylated MAC alter the viability or have cytotoxic effects on cells in culture. We have performed MTT tetrazolium reduction assay following exposure of cancer cells (gastric cancer, BGC823 and SGC-7901; colon cancer, HT-29, HCT-116 and SW-480) and normal gastric epithelial cells (GES-1) to all 20 allylated MAC at a concentration of 20 μM for 24 h. […] In addition, we also found notable solubility and stability profile of these compounds (Supplementary Figure 1).
(§2) Cells were plated at a density of 8 × 10^3 cells/well in 96-well plates and allowed to attach overnight. Stock solutions of allylated MAC and curcumin were prepared in DMSO and diluted in culture media to obtain appropriate concentration. Cells were treated for 24 h and 48 h, following which, 20 μL of 5 mg/ml MTT reagent was added. Purple formazan product was dissolved by the addition of 100 μL DMSO to each well. Absorbance was then monitored at 490 nm using a plate reader (Molecular Device Spectra MAX190, USA). Percentage of cytotoxicity was determined using the following formula: Growth inhibition (%) = (OD of control−OD of test/OD of control×100%).

SGC-7901 = experiment: MTT assay, growth inhibition / cell viability; type: cell-based; details: Homo sapiens; for inhibition at 20 µM: 24 h
Protocol: as §1, §2

HCT-116 = experiment: MTT assay, growth inhibition; type: cell-based, human; details: for % Of growth inhibition HCT-116: 20 μM, 24 h; for inhibition at 20 µM: Homo sapiens, HCT-116, 24 h
Protocol: as §1, §2

SW-480 = experiment: MTT assay, growth inhibition; type: cell-based, human; details: for inhibition at 20 µM: Homo sapiens, SW480, 24 h; for % Of growth inhibition SW-480: 20 μM, 24 h
Protocol: as §1, §2

GES-1 = experiment: MTT assay, growth inhibition in normal gastric epithelial cells; type: cell-based, human; details: for inhibition of the normal epithelial cells (selective cytotoxicity in cancer cell lines), in words: 20 μM, 24 h; for inhibition at 20 µM: Homo sapiens, GES1, 24 h, normal gastric epithelial cells
Protocol: as §1, §2

HT-29 = experiment: MTT assay, growth inhibition; type: cell-based; details: Homo sapiens, HT-29, 24 h
Protocol: as §1, §2

[1] = Body weight of xenograft mice; type: in vivo; details: 0–12 days, ip once a day; CA10 10 and 20 mg/kg, curcumin 50 mg/kg
From the text: (§3) All animal experiments complied with the Wenzhou Medical University's Policy on the Care and Use of Laboratory Animals. Protocols for animal studies were approved by the Wenzhou Medical University Animal Policy and Welfare Committee (Approved documents: 2016/201). Athymic BALB/c nu/nu female mice weighing 20–22 g (6 weeks old) were purchased from Vital River Laboratories (Beijing, China). Animals were housed (6 animals/gage) at a constant room temperature with a 12/12-hr light/dark cycle and fed a standard rodent diet and water ad libitum. SGC-7901 cells were injected subcutaneously into the right flank of each mice at 1 × 10^6 cells in 0.1 mL PBS. Once tumors reached a volume of 100–200 mm^3, mice were randomly divided into 4 groups. These groups included mice treated with 10 mg/kg CA10, mice treated with 20 mg/kg CA10, mice treated 50 mg/kg curcumin, and control mice receiving vehicle alone. All treatments were carried out with intraperitoneal injections. The body weight and tumor volumes were monitored and determined by measuring length (l) and width (w) and calculated as tumor volume (V = 0.5 × l × w2) at the indicated time points. At the end of treatment period, mice were sacrificed and the tumors were removed and weighed for histological analyses and proteins measurement studies.

[2] = test system: SGC-7901 xenograft tumors; experiment: In vivo mouse xenograft model, tumor growth; design: species or system mice; details: ip once a day for 12 days, CA10 10 and 20 mg/kg, curcumin 50 mg/kg
From the text: as §3

SMILES | inhibition at 20 µM (BGC-823) [%] | inhibition at 20 µM (SGC-7901; SGC-7901, 24 h) [%] | % Of growth inhibition HCT-116 (HCT-116) [%] | inhibition at 20 µM (HCT-116) [%] | inhibition at 20 µM (SW-480) [%] | inhibition of the normal epithelial cells (selective cytotoxicity in cancer cell lines), in words (GES-1) | inhibition at 20 µM (GES-1) [%] | inhibition at 20 µM (HT-29) [%] | % Of growth inhibition SW-480 (SW-480) [%] | IC50 (BGC-823; BGC-823, 24 h) [µM] | IC50 (BGC-823; BGC-823, 48 h) [µM] | IC50 (SGC-7901; SGC-7901, 24 h) [µM] | IC50 (SGC-7901; SGC-7901, 48 h) [µM] | body weight of mice [1] | tumor weight and volume [2]
C=CCc1cc(/C=C2\CN(CC)C/C(=C\c3ccc(O)c(CC=C)c3)C2=O)ccc1O [CA1] | 60.4 ± 0.62 | 66.1 ± 8.88 | 50.22 ± 7.62 | 55 | 71.3 ± 3.35 | minimal inhibition | 22.8 ± 3.04 | < 60 | – | – | – | – | – | – | –
C=CCc1cc(/C=C2\CN(CCC)C/C(=C\c3ccc(O)c(CC=C)c3)C2=O)ccc1O [CA2] | 63 ± 8.7 | 79.8 ± 0.9 | – | 60.6 ± 0.98 | 76 ± 6.31 | – | 60.88 ± 0.41 | 67 ± 6.79 | – | – | – | – | – | – | –
C=CCc1cc(/C=C2\CN(C3CC3)C/C(=C\c3ccc(O)c(CC=C)c3)C2=O)ccc1O [CA4] | 67.06 ± 0.4 | 77.8 ± 1.98 | 44.18 ± 6.18 | 55 | 81 ± 5.36 | – | 63.4 ± 2.67 | 74.3 ± 0.79 | – | – | – | – | – | – | –
C=CCc1cc(/C=C2\CN(S(=O)(=O)c3ccccc3)C/C(=C\c3ccc(O)c(CC=C)c3)C2=O)ccc1O [CA5] | 63.3 ± 5.52 | > 80 | 43.04 ± 4.24 | 55 | 77.1 ± 3.79 | – | 63.8 ± 2.33 | 71.2 ± 1.99 | – | – | – | – | – | – | –
C=CCc1cc(/C=C2\CN(Cc3ccccc3)C/C(=C\c3ccc(O)c(CC=C)c3)C2=O)ccc1O [CA6] | 65.83 ± 0.52 | > 80 | 72.58 ± 2.72 | 70 | 79.1 ± 4.2 | minimal inhibition | 22.6 ± 6.08 | 79.7 ± 3.11 | – | – | – | – | – | – | –
C=CCc1cc(/C=C2\CCC/C(=C\c3ccc(O)c(CC=C)c3)C2=O)ccc1O [CA7] | 71.2 ± 3.07 | > 80 | – | 67 ± 4.92 | 71.7 ± 1.15 | – | > 60 | 79.5 ± 4.1 | – | – | – | – | – | – | –
C=CCc1cc(/C=C2\COC/C(=C\c3ccc(O)c(CC=C)c3)C2=O)ccc1O [CA8] | 71.2 ± 1.07 | > 80 | 38.83 ± 4.23 | 55 | 79.3 ± 4.37 | – | 27 ± 3.4 | 71.1 ± 2.6 | – | – | – | – | – | – | –
C=CCc1cc(/C=C2\CSC/C(=C\c3ccc(O)c(CC=C)c3)C2=O)ccc1O [CA9] | 69.3 ± 3.13 | > 80 | – | 67.3 ± 5.03 | 78 ± 5.69 | – | > 60 | 75.7 ± 2.18 | – | – | – | – | – | – | –
C=CCc1cc(/C=C2\CN(C3CC3)C/C(=C\c3ccc(N4CCN(C)CC4)cc3)C2=O)ccc1O [CA11] | 61.33 ± 0.48 | 61 ± 4.97 | 52.05 ± 1.91 | 55 | 49.5 ± 6.47 | – | 45.56 ± 0.39 | 63.3 ± 1.31 | – | – | – | – | – | – | –
C=CCc1cc(/C=C2\CN(C3CC3)C/C(=C\c3ccc(N4CCOCC4)cc3)C2=O)ccc1O [CA12] | 40.1 ± 4.65 | 52.5 ± 5.54 | 70.99 ± 3.12 | 70 | 33.8 ± 1.98 | – | 40 ± 3.29 | < 60 | – | – | – | – | – | – | –
C=CCc1cc(/C=C2\CN(C3CC3)C/C(=C\c3ccc(N(CC)CC)cc3)C2=O)ccc1O [CA14] | 40.4 ± 5.7 | > 80 | 52.10 ± 9.05 | 55 | 57 ± 3.57 | – | 47.9 ± 8.09 | < 60 | – | – | – | – | – | – | –
C=CCc1cc(/C=C2\CN(C3CC3)C/C(=C\c3ccc(N(C)C)cc3)C2=O)ccc1O [CA15] | 50.6 ± 2.49 | 50.5 ± 4.3 | 43.17 ± 8.26 | 55 | 36.3 ± 1.7 | minimal inhibition | 23.8 ± 4.79 | < 60 | – | – | – | – | – | – | –
C=CCc1cc(/C=C2\CN(C3CC3)C/C(=C\c3cc(OC)c(OC)cc3OC)C2=O)ccc1O [CA16] | 60.7 ± 5.64 | 60 ± 7.35 | – | 60.1 ± 2.02 | 33.8 to 57 | – | 41.3 ± 5.22 | 68 ± 1.39 | 35.69 ± 5.91 | – | – | – | – | – | –
C=CCc1cc(/C=C2\CN(C3CC3)C/C(=C\c3ccc(OC)c(OC)c3)C2=O)ccc1O [CA17] | 37 ± 4.35 | 73.7 ± 1.26 | – | 78.1 ± 64 | 64.7 ± 4.65 | – | 61.9 ± 1.41 | < 60 | – | – | – | – | – | – | –
C=CCc1cc(/C=C2\CN(C3CC3)C/C(=C\c3c(OC)cc(OC)cc3OC)C2=O)ccc1O [CA18] | 57.96 ± 0.01 | 61.3 ± 4.02 | – | 74.8 ± 1.25 | – | – | 57.8 ± 3.58 | 63 ± 4.2 | 56.88 ± 3.82 | – | – | – | – | – | –
C=CCc1cc(/C=C2\CN(C3CC3)C/C(=C\c3ccc(OC)cc3OC)C2=O)ccc1O [CA19] | 59.2 ± 3.67 | 76.6 ± 5.18 | – | 78.1 ± 4.72 | 60.4 ± 3.1 | – | 62 ± 4.58 | 62.6 ± 7.39 | – | – | – | – | – | – | –
C=CCc1cc(/C=C2\CN(C3CC3)C/C(=C\c3ccc(OC(C)(C)C)cc3)C2=O)ccc1O [CA20] | 56.8 ± 0.81 | > 80 | 73.62 ± 4.23 | 70 | 61.5 ± 6.1 | minimal inhibition | 25.8 ± 1.86 | 71.16 ± 0.6 | – | – | – | – | – | – | –
COc1cc(/C=C/C(=O)CC(=O)/C=C/c2ccc(O)c(OC)c2)ccc1O [curcumin] | – | – | – | – | – | – | – | – | – | 54.4 ± 3.92 | 38.2 ± 1.02 | 62.2 ± 2.08 | 36.9 ± 3.17 | no change | significant reduction
